Test results from patent US20080124410A1, “Use Of Lavender Oil For The Prophylaxis And Treatment Of Neurasthenia, Somatization Disorders And Other Stress-Associated Diseases” (priority 2004, published 2008).

System: rats
Assay: Forced Swimm Stress model, immobilization period
Format: in vivo
Conditions: 30 mg/kg perorally, once a day for nine days
Procedure: The stress-reducing effects of lavender oil was tested in rats by the so-called “Forced Swimm Stress” model (R. D. Porsolt et al. (1978), Eur. J. Pharmacol. 47, 379-391). The stress reaction experimentally elicited by this test in rats is a recognized method for testing stress-induced behaviour. The principle of the test system used involves that rats being put into a water-filled glass cylinder which they can not leave independently, fall into a still state after a short period of swimming (immobilization period). This immobility is interpreted as a reaction to recognizing the hopelessness of the situation (cf. Example 2).
In order to test the stress-reducing effects of lavender oil, rats were treated over a period of nine days in total with differently high dosages of lavender oil according to European Pharmacopoeia, edition 4 (WS® 1265) once a day. For comparison purposes some animals were treated either with the tricyclic antidepressive agent imipramine used in stress therapy or with a control solution without an active ingredient. On the seventh day of the treatment, the animals were placed into the water-filled glass cylinder for 15 minutes for familiarization purposes. At the final day of the treatment, the animals were placed into the graduated cylinder again for a period of 5 minutes and the period of immobility was measured as a measure of the stress reaction.

CN(C)CCCN1c2ccccc2CCc2ccccc21 [imipramine] was tested. Which immobilization period did it give?
Its immobilization period is 48 ± 6 s.

What about the inhibition (versus control) of the same compound?
Its inhibition is 67%.
